The supplement of paper PMC10307832

Legend:
Test in all cases: relative viability (nuclei count vs DMSO), 5 days (fraction); higher = more cells survive
Venetoclax + Navitoclax = compound: CC1(C)CCC(CN2CCN(c3ccc(C(=O)NS(=O)(=O)c4ccc(NCC5CCOCC5)c([N+](=O)[O-])c4)c(Oc4cnc5[nH]ccc5c4)c3)CC2)=C(c2ccc(Cl)cc2)C1 [Venetoclax] + CC1(C)CCC(c2ccc(Cl)cc2)=C(CN2CCN(c3ccc(C(=O)NS(=O)(=O)c4ccc(N[C@H](CCN5CCOCC5)CSc5ccccc5)c(S(=O)(=O)C(F)(F)F)c4)cc3)CC2)C1 [Navitoclax] (partner 0.5 µM)
Summary of the method: (§1)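 Each reported value is a median over duplicate plates. It expresses relative viability: treated-well nuclei count divided by vehicle-well nuclei count. Lung cancer cell lines in 1536-well plates were dosed by pin tool a day after seeding, alone with one drug or with a fixed anchor-drug dose plus five library-drug doses (not always all listed) in √10 steps, and nuclei were counted after 5 days.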

Selumetinib + Crizotinib = compound: Cn1cnc2c(F)c(Nc3ccc(Br)cc3Cl)c(C(=O)NOCCO)cc21 [Selumetinib] + C[C@@H](Oc1cc(-c2cnn(C3CCNCC3)c2)cnc1N)c1c(Cl)ccc(F)c1Cl [Crizotinib] (partner 1 µM)
Summary of the method: as §1

Selumetinib + Linsitinib = compound: Cn1cnc2c(F)c(Nc3ccc(Br)cc3Cl)c(C(=O)NOCCO)cc21 [Selumetinib] + C[C@]1(O)C[C@@H](c2nc(-c3ccc4ccc(-c5ccccc5)nc4c3)c3c(N)nccn32)C1 [Linsitinib] (partner 1 µM)
Summary of the method: as §1

Venetoclax + Palbociclib = compound: CC1(C)CCC(CN2CCN(c3ccc(C(=O)NS(=O)(=O)c4ccc(NCC5CCOCC5)c([N+](=O)[O-])c4)c(Oc4cnc5[nH]ccc5c4)c3)CC2)=C(c2ccc(Cl)cc2)C1 [Venetoclax] + CC(=O)c1c(C)c2cnc(Nc3ccc(N4CCNCC4)cn3)nc2n(C2CCCC2)c1=O [Palbociclib] (partner 0.5 µM)
Summary of the method: as §1

Row | Cell Line | relative viability (Venetoclax + Navitoclax; first compound 0.01 µM) | relative viability (Venetoclax + Navitoclax; first compound 0.03162 µM) | relative viability (Venetoclax + Navitoclax; first compound 0.3162 µM) | relative viability (Venetoclax + Navitoclax; first compound 1 µM) | relative viability (Selumetinib + Crizotinib; first compound 0.02 µM) | relative viability (Selumetinib + Crizotinib; first compound 0.06325 µM) | relative viability (Selumetinib + Crizotinib; first compound 0.2 µM) | relative viability (Selumetinib + Crizotinib; first compound 0.6325 µM) | relative viability (Selumetinib + Linsitinib; first compound 0.02 µM) | relative viability (Selumetinib + Linsitinib; first compound 0.06325 µM) | relative viability (Selumetinib + Linsitinib; first compound 0.2 µM) | relative viability (Selumetinib + Linsitinib; first compound 0.6325 µM) | relative viability (Venetoclax + Palbociclib; first compound 0.01 µM) | relative viability (Venetoclax + Palbociclib; first compound 0.03162 µM) | relative viability (Venetoclax + Palbociclib; first compound 0.1 µM) | relative viability (Venetoclax + Palbociclib; first compound 0.3162 µM) | relative viability (Venetoclax + Palbociclib; first compound 1 µM) | relative viability (Venetoclax + Navitoclax; first compound 0.1 µM)
1 | NCI-H2405 | 0.865 | 1.02 | 0.941 | 0.91 | 0.774 | 0.774 | 0.716 | 0.549 | 0.77 | 0.575 | 0.546 | 0.392 | 0.52 | 0.533 | 0.531 | 0.529 | 0.513 | –
2 | NCI-H3122 | 1.11 | 1.03 | 1.01 | 1.01 | 0.238 | 0.234 | 0.23 | 0.236 | 0.933 | 0.817 | 0.766 | 0.728 | 0.249 | 0.226 | 0.185 | 0.18 | 0.204 | 1.03
3 | PC-3 [JPC-3] | 0.832 | 0.785 | 0.829 | 0.744 | 0.98 | 0.904 | 0.905 | 0.774 | 0.95 | 0.876 | 0.92 | 0.727 | 0.561 | 0.533 | 0.583 | 0.558 | 0.517 | 0.78
4 | PC-14 | 0.986 | 1.03 | 0.954 | 0.926 | 0.867 | 0.814 | 0.961 | 0.949 | 0.935 | 0.87 | 0.912 | 0.9 | 0.521 | 0.514 | 0.546 | 0.574 | 0.437 | 0.936
5 | RERF-LC-KJ | 0.994 | 0.961 | 1.08 | 0.89 | 0.844 | 0.842 | 0.788 | 0.77 | 0.828 | 0.949 | 0.862 | 0.796 | 1.05 | 1.08 | 0.988 | 1.03 | 1.03 | 0.794
6 | SK-LU-1 | 0.502 | 0.994 | 0.729 | 0.804 | 0.922 | 0.881 | 0.828 | 0.46 | 0.897 | 1.06 | 0.903 | 0.625 | 0.405 | 0.403 | 0.35 | 0.403 | 0.372 | 0.945
7 | SK-MES-1 | 1.25 | 1.16 | 1.25 | 1.09 | 1 | 0.905 | 0.974 | 0.741 | 1.03 | 1.03 | 0.814 | 0.775 | 0.329 | 0.336 | 0.327 | 0.326 | 0.286 | 1.2
8 | SW 1573 | 0.877 | 1.02 | 1.03 | 0.997 | 0.762 | 0.683 | 0.639 | 0.597 | 0.779 | 0.642 | 0.683 | 0.596 | 0.337 | 0.422 | 0.377 | 0.36 | 0.362 | 0.971
